Assay results from patent US11571407B2, “Bicalutamide analogs or (S)-bicalutamide as exocytosis activating compounds for use in the treatment of a lysosomal storage disorder or glycogenosis” (BCN PEPTIDES, S.A., priority 2013, dated 2023).
Marks after values point to notes of the source that are not given here.

Tests used:
[1] = system: fibroblasts from patients affected by different lysosomal storage diseases; assay: Determination of lysosomal exocytosis (β-hexosaminidase activity in the culture medium); assay type: cell-based, human; settings: for Increase in exocytosis (%), Median: Table 4 median over the patients' fibroblasts; for Increase in exocytosis (%), Median / Increase in exocytosis (%): 72 h
Description: (§1) Fibroblasts from thirteen patients affected by seven different lysosomal storage diseases (Fabry, Gaucher, Hurler, Niemann-Pick type A/B, Sanfilippo A, Sanfilippo B and Tay-Sachs) were cultured in DMEM (Dulbecco's modified Eagles medium) with 10% fetal bovine serum and in the presence of antibiotics (penicillin and streptomycin), at 37° C. with 5% CO2. All reagents were purchased from PAA Laboratories (Velizy-Villacoublay, France). The fibroblasts of the patients were selected on the basis of availability of fibroblasts and measurable residual activity. The use of human samples was approved by the Ethical Committee of Hospital Clinic, Barcelona
Fibroblasts cultured for 72 h in 24 well-plates in the presence or absence of bicalutamide, (S)-bicalutamide, (S)-bicalutamide analogs or (R)-bicalutamide at different concentrations in triplicate (10 nmol/L, 100 nmol/L, 1 μmol/L, 10 μmol/L, 50 μmol/L and 100 μmol/L), were rinsed with physiological saline. The cells were lysed by using 3 freeze-thaw cycles. Then protein concentration was determined by using the Lowry method. Protein lysates (10 μg) were seeded in 96-well plates and the enzymatic activity of the enzyme involved in each disease was determined in triplicate by means of fluorimetric artificial substrates: 4-methylumbelliferyl-α-N-sulphoglucosaminide for Sanfilippo A, 4-methylumbelliferyl-2-acetamido-2 deoxy-α-D-glucopyranoside for Sanfilippo B, 4-methylumbelliferyl-α-L-iduronide for Hurler, 4-methylumbelliferyl-N-acetyl-β-D-glucosaminide for Tay-sachs, 4-methylumbelliferyl-β-D-glucopyranoside for Gaucher, 4-methylumbelliferyl-α-Galactopiranosid for Fabry disease, and 6-hexadecanoylamino-4-methylumbelliferyl-P-colline for Niemann-Pick type AB. The activity of the enzyme β-hexosaminidase was assayed by using 4-methylumbelliferyl-2 acetamido-2 deoxy-β-D-glucopyranoside as artificial substrate [Annunziata et al., Study of influence of sex and age on human serum lysosomal enzymes by using 4-methylumbelliferyl substrates. Clin. Chim. Acta.
Lysosomal exocytosis was monitorized by measuring the enzymatic activity of the lysosomal enzyme β-hexosaminidase in the culture medium [Xu M, et al, δ-Tocopherol reduces lipid accumulation in Niemann-Pick type C1 and Wolman cholesterol storage disorders. […] The fibroblasts were previously treated with different concentrations of bicalutamide, (S)-bicalutamide or (R)-bicalutamide (10 nmol/L, 100 nmol/L, 1 μmol/L, 10 μmol/L, 50 μmol/L and 100 μmol/L) in triplicate in 24-well plates. At 0, 24, 48 and 72 hours, 30 μL of culture medium was aliquoted for the subsequent β-hexosaminidase activity assay.
Fibroblasts from two patients affected by Sanfilippo B and Hurler diseases were treated with different concentrations of bicalutamide (racemic mixture at increasing concentrations of 0.01, 0.1, 1, 10 and 100 μM). And the increase in lysosomal exocytosis was determined by analyzing the enzymatic activity of the lysosomal enzyme β-hexosaminidase in the culture medium.
Fibroblasts from thirteen patients affected by different lysosomal storage diseases (four Sanfilippo B disease patients with different genotypes, three Sanfilippo A disease patients with different genotypes, two Tay-Sachs disease patients with the same genotype, one Gaucher disease patient, one Niemann-pick type A/B disease patient, one Hurler disease patient, and one Fabry disease patient) were independently treated with different concentrations of (R)- and (S)-bicalutamide (50 and 100 μM) for 72 hours.

[2] = system: fibroblasts from patients affected by different lysosomal storage diseases; assay: Cell viability, MTT assay; assay type: cell-based, human; parameters: key to Decrease of Cell Viability (%): N.S.: non significant decrease; settings: 72 h
Description: as §1
Fibroblasts of early passage (between 5 and 9 passages) were plated in 6- or 24-well plates depending on the test and were treated for 72 hours with increasing concentrations (10 nmol/L, 100 nmol/L, 1 μmol/L, 10 μmol/L, 50 μmol/L and 100 μmol/L) of bicalutamide (Sigma-Aldrich, St. Louis, USA) and (R)- and (S)-bicalutamide (Toronto Research Chemicals Inc., Toronto (Ontario), Canada). Cell viability was evaluated in each cell line for each concentration using the 3-[4,5-dimethylthiazol-2-yl]-2,5-diphenyl tetrazolium bromide (MTT) assay (Sigma-aldrich, St. Louis, USA) described by Sumantran V. N. Cellular chemosensitivity assays: an overview. Methods Mol. Biol. (2011), 731, 219-236.
Fibroblasts from thirteen patients with different lysosomal storage diseases (four patients affected by Sanfilippo B disease patients with different genotypes, three Sanfilippo A disease patients with different genotypes, two Tay-Sachs disease patients with the same genotype, one Gaucher disease patient, one Niemann-PickA/B disease patient, one Hurler disease patient and one Fabry disease patient) were independently treated with different concentrations of (R)- and (S)-bicalutamide (50 and 100 μM). Cell viability was evaluated for each treatment in each cell line using the MTT assay.

## C[C@@](O)(CS(=O)(=O)c1ccc(F)cc1)C(=O)Nc1ccc(C#N)c(C(F)(F)F)c1 (single isomer, unassigned) [(R)-BICALUTAMIDE (2)]
[1]; 50 μM
  Increase in exocytosis (%), Median: 0%
[1]; 100 μM
  Increase in exocytosis (%), Median: 0%
[1]; Table 4 patient 1, Sanfilippo B fibroblasts, 50 μM
  Increase in exocytosis (%): 0%
[1]; Table 4 patient 1, Sanfilippo B fibroblasts, 100 μM
  Increase in exocytosis (%): 257* %
[1]; Table 4 patient 2, Sanfilippo B fibroblasts, 50 μM
  Increase in exocytosis (%): N.S.
[1]; Table 4 patient 2, Sanfilippo B fibroblasts, 100 μM
  Increase in exocytosis (%): N.S.
[1]; Table 4 patient 3, Sanfilippo B fibroblasts, 50 μM
  Increase in exocytosis (%): N.S.
[1]; Table 4 patient 3, Sanfilippo B fibroblasts, 100 μM
  Increase in exocytosis (%): N.S.
[1]; Table 4 patient 4, Sanfilippo B fibroblasts, 50 μM
  Increase in exocytosis (%): N.S.
[1]; Table 4 patient 4, Sanfilippo B fibroblasts, 100 μM
  Increase in exocytosis (%): 0%
[1]; Table 4 patient 5, Sanfilippo A fibroblasts, 50 μM
  Increase in exocytosis (%): 0%
[1]; Table 4 patient 5, Sanfilippo A fibroblasts, 100 μM
  Increase in exocytosis (%): 0%
[1]; Table 4 patient 6, Sanfilippo A fibroblasts, 50 μM
  Increase in exocytosis (%): N.S.
[1]; Table 4 patient 6, Sanfilippo A fibroblasts, 100 μM
  Increase in exocytosis (%): N.S.
[1]; Table 4 patient 7, Sanfilippo A fibroblasts, 50 μM
  Increase in exocytosis (%): N.S.
[1]; Table 4 patient 7, Sanfilippo A fibroblasts, 100 μM
  Increase in exocytosis (%): 0%
[1]; Table 4 patient 8, Tay-Sachs fibroblasts, 50 μM
  Increase in exocytosis (%): N.S.
[1]; Table 4 patient 8, Tay-Sachs fibroblasts, 100 μM
  Increase in exocytosis (%): 0%
[1]; Table 4 patient 9, Tay-Sachs fibroblasts, 50 μM
  Increase in exocytosis (%): N.S.
[1]; Table 4 patient 9, Tay-Sachs fibroblasts, 100 μM
  Increase in exocytosis (%): 0%
[1]; Table 4 patient 10, Gaucher fibroblasts, 50 μM
  Increase in exocytosis (%): N.S.
[1]; Table 4 patient 10, Gaucher fibroblasts, 100 μM
  Increase in exocytosis (%): 0%
[1]; Table 4 patient 11, Niemann-Pick AB fibroblasts, 50 μM
  Increase in exocytosis (%): N.S.
[1]; Table 4 patient 11, Niemann-Pick AB fibroblasts, 100 μM
  Increase in exocytosis (%): 0%
[1]; Table 4 patient 12, Hurler fibroblasts, 50 μM
  Increase in exocytosis (%): N.S.
[1]; Table 4 patient 12, Hurler fibroblasts, 100 μM
  Increase in exocytosis (%): N.S.
[1]; Table 4 patient 13, Fabry fibroblasts, 50 μM
  Increase in exocytosis (%): N.S.
[1]; Table 4 patient 13, Fabry fibroblasts, 100 μM
  Increase in exocytosis (%): 0%
[1]; thirteen patient fibroblast cultures, 50 and 100 μM, 72 hours
  cell cultures with significantly increased lysosomal exocytosis: one of the tested cell cultures
[2]; Table 3 patient 1, Sanfilippo B fibroblasts, 50 μM
  Decrease of Cell Viability (%): 20* %
[2]; Table 3 patient 1, Sanfilippo B fibroblasts, 100 μM
  Decrease of Cell Viability (%): 37* %
[2]; Table 3 patient 2, Sanfilippo B fibroblasts, 50 μM
  Decrease of Cell Viability (%): 10* %
[2]; Table 3 patient 2, Sanfilippo B fibroblasts, 100 μM
  Decrease of Cell Viability (%): 26* %
[2]; Table 3 patient 3, Sanfilippo B fibroblasts, 50 μM
  Decrease of Cell Viability (%): 40* %
[2]; Table 3 patient 3, Sanfilippo B fibroblasts, 100 μM
  Decrease of Cell Viability (%): 52* %
[2]; Table 3 patient 4, Sanfilippo B fibroblasts, 50 μM
  Decrease of Cell Viability (%): 0%
[2]; Table 3 patient 4, Sanfilippo B fibroblasts, 100 μM
  Decrease of Cell Viability (%): 25* %
[2]; Table 3 patient 5, Sanfilippo A fibroblasts, 50 μM
  Decrease of Cell Viability (%): N.S.
[2]; Table 3 patient 5, Sanfilippo A fibroblasts, 100 μM
  Decrease of Cell Viability (%): N.S.
[2]; Table 3 patient 6, Sanfilippo A fibroblasts, 50 μM
  Decrease of Cell Viability (%): 0%
[2]; Table 3 patient 6, Sanfilippo A fibroblasts, 100 μM
  Decrease of Cell Viability (%): 0%
[2]; Table 3 patient 7, Sanfilippo A fibroblasts, 50 μM
  Decrease of Cell Viability (%): 0%
[2]; Table 3 patient 7, Sanfilippo A fibroblasts, 100 μM
  Decrease of Cell Viability (%): 0%
[2]; Table 3 patient 8, Tay-Sachs fibroblasts, 50 μM
  Decrease of Cell Viability (%): 0%
[2]; Table 3 patient 8, Tay-Sachs fibroblasts, 100 μM
  Decrease of Cell Viability (%): 0%
[2]; Table 3 patient 9, Tay-Sachs fibroblasts, 50 μM
  Decrease of Cell Viability (%): 0%
[2]; Table 3 patient 9, Tay-Sachs fibroblasts, 100 μM
  Decrease of Cell Viability (%): N.S.
[2]; Table 3 patient 10, Gaucher fibroblasts, 50 μM
  Decrease of Cell Viability (%): 0%
[2]; Table 3 patient 10, Gaucher fibroblasts, 100 μM
  Decrease of Cell Viability (%): 24* %
[2]; Table 3 patient 11, Niemann-Pick AB fibroblasts, 50 μM
  Decrease of Cell Viability (%): 0%
[2]; Table 3 patient 11, Niemann-Pick AB fibroblasts, 100 μM
  Decrease of Cell Viability (%): 0%
[2]; Table 3 patient 12, Hurler fibroblasts, 50 μM
  Decrease of Cell Viability (%): 0%
[2]; Table 3 patient 12, Hurler fibroblasts, 100 μM
  Decrease of Cell Viability (%): 0%
[2]; Table 3 patient 13, Fabry fibroblasts, 50 μM
  Decrease of Cell Viability (%): 0%
[2]; Table 3 patient 13, Fabry fibroblasts, 100 μM
  Decrease of Cell Viability (%): 0%
